Assay results from PMC6874132, “Biosensors Show the Pharmacokinetics of S-Ketamine in the Endoplasmic Reticulum” (Frontiers in Cellular Neuroscience, 2019).
“And” between values parts separate entries of the source, which are not always exact repeats. Equal entries are not always repeated.

Legend:
[1] = system: iSketSnFR constructs; assay: Activation of the iSketSnFR constructs by a permanently charged analog; assay type: biochemical
Protocol: (§1) Biosensors selected for further study were purified with the His6 sequence included in the bacterial expression vector (Shivange et al., [2019]). Proteins were purified by immobilization in phosphate-buffered saline (PBS), pH 7.4, and elution in an imidazole gradient (10–200 mM). Proteins were concentrated by centrifugation through a 30 kDa cut off column, and by dialysis against PBS. The dialyzed protein was quantified using a nanodrop spectrofluorometer, and 50 or (preferably) 100 nM was used in dose-response studies to characterize responses to various ligands. Dose-response relations for ligands were conducted with the plate reader. The pH-dependent dose-response studies with purified iSketSnFR constructs were performed using 3× PBS buffers.
The permanently charged nicotine analog, N’-methylnicotinium, previously provided additional insights for the iNicSnFR family (Shivange et al., [2019]).

[2] = system: iSketSnFR2 (AK8); assay: Dose-response of purified iSketSnFR2 (AK8) biosensor fluorescence; assay type: biochemical
Protocol: (§2) A Tecan Spark M10 96-well fluorescence plate reader (equipped with appropriate filters) was used to measure resting and S-ketamine-induced fluorescence (F0 and ΔF, respectively). Bacterial lysates were tested with excitation at 485 nm and emission at 535 nm. Promising clones were amplified and sequenced.
as §1
(§3) We introduce a convenient metric to summarize progress in evolving increasingly sensitive fluorescent biosensors for drugs. The metric, the S-slope, is especially appropriate for low drug concentrations because it corresponds to the relationship between [drug] and ΔF at the beginning of the dose-response relation. We define the S-slope for use with intensity-based drug biosensors:
(§4) S−slope = Δ(F/F0)/(Δ[drug]).
(§5) We state the S-slope in units of μM^−1.
(§6) This article uses the S-slope for measurements on S-ketamine biosensors in bacterial lysates, with purified proteins, and expressed in cells. […] In this case, we calculated (as in Figure 2A below),

[3] = system: iSketSnFR2_PM; assay: Time-resolved fluorescence in Neuro2a cells transfected with iSketSnFR2_PM; assay type: cell-based
From the text: (§7) We constructed two variants of the iSKetSnFR1 and iSketSnFR2 biosensors for expression in mammalian cells. The plasma membrane (_PM) and endoplasmic reticulum (_ER) variants were constructed by a circular polymerase extension cloning procedure. For iSketSnFR1_PM and iSKetSnFR2_PM, we cloned the bacterial constructs into pCMV(MinDis), a variant of pDisplay (Invitrogen, Carlsbad, CA, USA) lacking the hemagglutinin tag (Marvin et al., [2013]). We modified the previous transmembrane domain (Shivange et al., [2019]) as follows. […]
(§8) We find that signals with the iSKetSnFR constructs have brightness similar to those of the previous iNicSnFR cpGFP-based biosensors for nicotine (Shivange et al., [2019]), but the dynamic range is somewhat lower for the iKetSnFRs. […] Fluorescence measurements at λex = 470 nm have been described (Shivange et al., [2019]). […] PM-directed constructs were measured with a region of interest (ROI) that included only the cell periphery.
(§9) Solutions were delivered from elevated reservoirs by gravity flow, through solenoid valves (Automate Scientific, Berkeley, CA, USA), then through tubing fed into a manifold, at a rate of 1–2 ml/min. […] As usual in fluorescence imaging experiments, we excluded data from the brightest cells, because these may have fluorescent impurities or aggregates that produce a rapidly bleaching baseline. […]

[4] = system: iSketSnFR1_ER; assay: Time-resolved fluorescence in iPSC-derived dopaminergic neurons transfected with iSketSnFR1_ER; assay type: cell-based, human; conditions: Figure 6C, dopaminergic neurons differentiated from iPSCs, average of five cells
From the text: as §7, with “follows. We replaced the terminal KKPR of the PDGF receptor (a putative ER retention motif) with KYLQKRRERRRQ (a p14 Golgi export motif) and ENANSFCYENEVAL (a putative Kir2.X ER export motif).” for “follows.”
(§10) Fujifilm CDI^2 (formerly named Cellular Dynamics International, Madison WI, USA), furnished iCell DopaNeurons. […] The supplier has measured that 89% of the cells are positive for tyrosine hydroxylase by fluorescence-activated cell sorting. […]
as §8, with “periphery. […]” for “periphery.”

[5] = system: iSketSnFR1_PM; assay: Time-resolved fluorescence in iPSC-derived dopaminergic neurons transfected with iSketSnFR1_PM; assay type: cell-based, human; conditions: Figure 6C, dopaminergic neurons differentiated from iPSCs, average of five cells
From the text: as §7, with “follows. We replaced the terminal KKPR of the PDGF receptor (a putative ER retention motif) with KYLQKRRERRRQ (a p14 Golgi export motif) and ENANSFCYENEVAL (a putative Kir2.X ER export motif).” for “follows.”
as §10
as §8, with “periphery. […]” for “periphery.”

[6] = system: iSketSnFR2_ER; assay: Time-resolved fluorescence in Neuro2a cells transfected with iSketSnFR2_ER; assay type: cell-based
From the text: as §7, §8, §9

[7] = system: iSketSnFR1 (AK2); assay: Dose-response of purified iSketSnFR1 (AK2) biosensor fluorescence; assay type: biochemical
Protocol: as §2, §1, §3, §4, §5, §6

[8] = system: AK1; assay: S-ketamine dose-response of biosensor construct AK1; assay type: biochemical; conditions: at 1 μM S-ketamine; Gly residue at position 357
From the text: Starting with the iNicSnFR biosensor constructs (Shivange et al., [2019]), we constructed and measured ~3,000 mutants, in iterative rounds of site-saturated mutagenesis (SSM). We utilized the Quikchange mutagenesis protocol (Agilent), including a mixture of three primers, creating 22 unique codons encoding the 20 canonical amino acids (Kille et al., [2013]). The 22-codon procedure yields an estimated >96% residue coverage for a collection of 96 randomly chosen clones.
as §2, with “sequenced. […]” for “sequenced.”
Biosensors selected for further study were purified with the His6 sequence included in the bacterial expression vector (Shivange et al., [2019]). […] The dialyzed protein was quantified using a nanodrop spectrofluorometer, and 50 or (preferably) 100 nM was used in dose-response studies to characterize responses to various ligands. Dose-response relations for ligands were conducted with the plate reader. […]
as §6

[9] = system: iSketSnFR1_PM or iSketSnFR1_ER; assay: Time-resolved fluorescence in Neuro2a cells transfected with iSketSnFR1 constructs; assay type: cell-based; conditions: 20 s pulses (Figure 4), read-out: half-maximal concentration of S-ketamine
From the text: as §7, §8, §9

[10] = after which rapid antidepressant effects occur; ref Lester et al., 2012; Janssen Research and Development, 2019; cited from earlier work
[11] = system: endoplasmic reticulum (ER); assay: Subcellular pharmacokinetics: S-ketamine in the endoplasmic reticulum measured with ER- and PM-targeted biosensors; assay type: cell-based; conditions: Neuro2a cells and human dopaminergic neurons differentiated from iPSCs
From the text: as §7, §8, §9

[12] = system: iNicSnFR1, iNicSnFR2, and iNicSnFR3a, as well as 12 other biosensors in the series; assay: Fluorescence test against iNicSnFR biosensors; assay type: biochemical; conditions: at concentrations <100 μM
Protocol: as §2, with “sequenced. The most sensitive construct in each round of SSM was used as a template for the next round of SSM.” for “sequenced.”
We tested S-ketamine and R-ketamine (Figure 1) against iNicSnFR1, iNicSnFR2, and iNicSnFR3a, as well as against 12 other biosensors in the series that led to the iNicSnFRs (Shivange et al., [2019]).

[13] = Figure 5C, sub-μM S-ketamine, linear fit, average of 10 cells
[14] = [S-ketamine] <1 μM, mean ± SD, 25 total cells from two independent transfections
[15] = Figure 2B2, purified protein, pH 7.0, 3× PBS, Hill fit
[16] = Figure 2B1, purified protein, pH 7.0, 3× PBS, Hill fit

For C[N+](C)(C)[C@]1(c2ccccc2Cl)CCCCC1=O [N,N-dimethyl-S-ketamine], the “activation of the iSketSnFR constructs” value [1] was “did not produce robust activation”.

For CN[C@@]1(c2ccccc2Cl)CCCCC1=O [R-ketamine], the “concentrations giving detectable responses” value [2] was greater than 100 µM and the “S-slope lower than that of S-ketamine” value ([2]; at iSketSnFR2) was “at least 100 fold”.

CN[C@]1(c2ccccc2Cl)CCCCC1=O [S-ketamine] gave a S-slope [3, 13] of 0.49 µM⁻¹, a S-slope [3, 14] of 0.42 ± 0.14 µM⁻¹ and a S-slope [4] of 0.111 µM⁻¹. The S-slope [5] was 0.099 µM⁻¹ and 0.1 µM⁻¹, the S-slope [6, 13] was 0.26 µM⁻¹ and the S-slope [6, 14] was 0.29 ± 0.04 µM⁻¹. The “S-Ketamine Dose-Response S-slope” value ([2]; Figure 2A, purified protein) was 1.87 µM⁻¹ and 1.9 µM⁻¹, the EC50 [2, 15] was 1.16 ± 0.6 µM and the ΔFmax/F0 [2, 15] was 3.0 ± 0.3. The S-slope ([2]; Figure 7A, in solution, λEx = 400 nm, pH 7) was -0.23 µM⁻¹, the “S-slope = delta(F/F0)/(delta[S-ketamine])” value ([2]; in solution (abstract)) was 1.9 µM⁻¹ and the “[S-slope] (magnitude)” value ([2]; λex = 400 nm, purified protein, pH range 6 to 8.5 (Supplementary Figure S2)) was no more than 0.3. For the same compound, the “S-Ketamine Dose-Response S-slope” value ([7]; Figure 2A, purified protein) was 0.32 µM⁻¹, the EC50 [7, 16] was 10.7 ± 1.5 µM and the ΔFmax/F0 [7, 16] was 3.4 ± 0.1. The “expected response ΔF/F0 in vitro” value ([7]; to 1 μM S-ketamine, expected from S-slope) was 0.32, the ΔF/F0 [8] was ~ 0.12 and the EC50 [9] was roughly 10 µM. The “peak blood plasma concentrations” value [10] was 0.2 to 1 µM, the “time for entry into the ER after appearing in the external solution” value [11] was “within a few seconds” and the “time to leave the ER after removal from the extracellular solution” value [11] was “within a few seconds”. The “fluorescence increase activated by ligand” value [12] was “no detectable fluorescence increase”.
